From patent publication US20250296938A1, “Compounds that Interact with the Ras Superfamily for the Treatment of Cancers, Inflammatory Diseases, Rasopathies, and Fibrotic Disease” (SHY Therapeutics, LLC, priority 2018, published 2025) come the findings set out here.

What all share (test): Ras GTP binding domain inhibition assay (Cy3-GTP/Cy5-GTP competition)
In one experiment the target is T1, KRas G12D mutant (Homo sapiens, UniProt P01116, G12D).
T1 construct: fused on or other part: His tag, used for capture on nickel-coated plates
As to conditions: 20 μM. The procedure, abridged:
(§1)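 His-tagged Ras proteins were captured on nickel-coated wells in Buffer-I (25 mM Tris-HCl pH 7.4, 27 mM KCl, 137 mM NaCl, 1 mM MgCl2, 1 mM DTT) or Buffer-II (50 mM Tris-HCl pH 7.0). Compounds (20 μM or serial dilution, 1% DMSO) were incubated 3 h at RT, ±Sos(556-1049) in the final hour. Bound Cy3-/Cy5-GTP (100 nM, 45 min) was read after washing.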

Another experiment relates to KRas Q61H mutant. More on the design: species or system human. As to conditions: 20 μM; for KRas Q61H mutant + SOS: % inh.: with SOS; for KRas Q61H mutant: % inh.: without SOS. In outline:
as §1

For a further experiment, the system named is KRas G12C mutant. More on the design: species or system human. As to conditions: 20 μM; for KRas G12C mutant + SOS: % inh.: with SOS; for KRas G12C mutant: % inh.: without SOS. In outline:
as §1

In another experiment the test system is KRas wild type. Also on record: species or system human. Conditions: 20 μM; for KRas wild type + SOS: % inh.: with SOS; for KRas wild type: % inh.: without SOS. The procedure, abridged: as §1
Where [1] appears, read: with SOS, read-out: KRas G-12D mutant + SOS: % inh.
Where [2] appears, read: without SOS, read-out: KRas G12D mutant: % inh.

Like-named read-outs stand apart in the source and are kept apart here.

Take `COCC1CN(c2nc(-c3nccn3C)nc3sc(-c4cccc(OC)c4F)c(-c4ccc(OC)cc4)c23)C1` [drawing 805]: the inhibition at 20 µM on KRas G12D mutant (setting [1]) lay within 51 to 75%. For the same molecule, at KRas G12D mutant (setting [2]), the inhibition at 20 µM was in the range of 51 to 75%. Further, in the experiment on KRas Q61H mutant, the “KRas Q61H mutant + SOS: % inh.” value was “D (76-100% inhibition)” and the “KRas Q61H mutant: % inh.” value is given as “D (76-100% inhibition)”. Besides, in the experiment on KRas G12C mutant, the “KRas G12C mutant + SOS: % inh.” value is on record as “D (76-100% inhibition)” and the “KRas G12C mutant: % inh.” value is recorded as “B (26-50% inhibition)”. In the experiment on KRas wild type, the “KRas wild type + SOS: % inh.” value is given as “D (76-100% inhibition)” and the “KRas wild type: % inh.” value is reported as “C (51-75% inhibition)”.
On to `COc1ccc(-c2c(-c3cccc(OC)c3F)sc3nc(-c4nccn4C)nc(N4CCC(OC)C4)c23)cc1` (stereo not shown) [drawing 806], for which the inhibition at 20 µM on KRas G12D mutant (setting [1]) was 51 to 75%. The inhibition at 20 µM at KRas G12D mutant (setting [2]) is 51 to 75%. Further, in the experiment on KRas Q61H mutant, the “KRas Q61H mutant + SOS: % inh.” value was “D (76-100% inhibition)” and the “KRas Q61H mutant: % inh.” value was “C (51-75% inhibition)”. Moreover, in the experiment on KRas G12C mutant, the “KRas G12C mutant + SOS: % inh.” value is “D (76-100% inhibition)” and the “KRas G12C mutant: % inh.” value is listed as “A (1-25% inhibition)”. In addition, in the experiment on KRas wild type, the “KRas wild type + SOS: % inh.” value is listed as “D (76-100% inhibition)” and the “KRas wild type: % inh.” value is listed as “C (51-75% inhibition)”.
In the case of `Cc1cn(C)c(-c2nc(O)c3scc(-c4ccccn4)c3n2)n1` [drawing 807], on KRas G12D mutant (setting [1]), the inhibition at 20 µM was in the range of 26 to 50%. In addition, the inhibition at 20 µM on KRas G12D mutant (setting [2]) lay within 76 to 100%. Besides, in the experiment with KRas Q61H mutant, the “KRas Q61H mutant + SOS: % inh.” value is given as “C (51-75% inhibition)” and the “KRas Q61H mutant: % inh.” value is recorded as “A (1-25% inhibition)”. Further, in the experiment with KRas G12C mutant, the “KRas G12C mutant + SOS: % inh.” value was “C (51-75% inhibition)” and the “KRas G12C mutant: % inh.” value was “C (51-75% inhibition)”. For the same molecule, in the experiment on KRas wild type, the “KRas wild type + SOS: % inh.” value is recorded as “B (26-50% inhibition)” and the “KRas wild type: % inh.” value was “D (76-100% inhibition)”.
As for `Cc1cnc(-c2nc(O)c3scc(-c4ccccn4)c3n2)n1C` [drawing 808], the inhibition at 20 µM on KRas G12D mutant (setting [1]) fell in the range of 1 to 25%. Moreover, the inhibition at 20 µM on KRas G12D mutant (setting [2]) was in the range of 51 to 75%. In the experiment with KRas Q61H mutant, the “KRas Q61H mutant + SOS: % inh.” value is “B (26-50% inhibition)” and the “KRas Q61H mutant: % inh.” value is reported as “A (1-25% inhibition)”. Moreover, in the experiment with KRas G12C mutant, the “KRas G12C mutant + SOS: % inh.” value was “B (26-50% inhibition)” and the “KRas G12C mutant: % inh.” value is recorded as “C (51-75% inhibition)”. Besides, in the experiment on KRas wild type, the “KRas wild type + SOS: % inh.” value is “A (1-25% inhibition)” and the “KRas wild type: % inh.” value is given as “C (51-75% inhibition)”.
On to `O=C(NC1CCC1)c1nc(-c2ccccn2)nc(O)c1O` [drawing 809], for which the inhibition at 20 µM on KRas G12D mutant (setting [1]) was 26 to 50%. At KRas G12D mutant (setting [2]), the inhibition at 20 µM was 51 to 75%. In the experiment on KRas Q61H mutant, the “KRas Q61H mutant + SOS: % inh.” value was “B (26-50% inhibition)” and the “KRas Q61H mutant: % inh.” value is “D (76-100% inhibition)”. In addition, in the experiment with KRas G12C mutant, the “KRas G12C mutant + SOS: % inh.” value is reported as “B (26-50% inhibition)” and the “KRas G12C mutant: % inh.” value is on record as “C (51-75% inhibition)”. In the experiment with KRas wild type, the “KRas wild type + SOS: % inh.” value is “A (1-25% inhibition)” and the “KRas wild type: % inh.” value is listed as “D (76-100% inhibition)”.
Regarding `COCCN(C)C(=O)c1nc(-c2ccccn2)nc(O)c1O` [drawing 810], the inhibition at 20 µM at KRas G12D mutant (setting [1]) was in the range of 1 to 25%. Moreover, the inhibition at 20 µM on KRas G12D mutant (setting [2]) is 1 to 25%. In the experiment on KRas Q61H mutant, the “KRas Q61H mutant + SOS: % inh.” value is “A (1-25% inhibition)” and the “KRas Q61H mutant: % inh.” value is recorded as “A (1-25% inhibition)”. Moreover, in the experiment with KRas G12C mutant, the “KRas G12C mutant + SOS: % inh.” value is listed as “A (1-25% inhibition)” and the “KRas G12C mutant: % inh.” value was “C (51-75% inhibition)”. Moreover, in the experiment with KRas wild type, the “KRas wild type + SOS: % inh.” value is “A (1-25% inhibition)” and the “KRas wild type: % inh.” value is reported as “B (26-50% inhibition)”.
With `CC(C)CNC(=O)c1nc(-c2ccccn2)nc(O)c1O` [drawing 811], the inhibition at 20 µM at KRas G12D mutant (setting [1]) is 1 to 25%. For the same molecule, the inhibition at 20 µM at KRas G12D mutant (setting [2]) fell in the range of 51 to 75%. In addition, in the experiment on KRas Q61H mutant, the “KRas Q61H mutant + SOS: % inh.” value is recorded as “B (26-50% inhibition)” and the “KRas Q61H mutant: % inh.” value is recorded as “C (51-75% inhibition)”. Further, in the experiment on KRas G12C mutant, the “KRas G12C mutant + SOS: % inh.” value is reported as “B (26-50% inhibition)” and the “KRas G12C mutant: % inh.” value is given as “D (76-100% inhibition)”. Besides, in the experiment with KRas wild type, the “KRas wild type + SOS: % inh.” value is “A (1-25% inhibition)” and the “KRas wild type: % inh.” value was “D (76-100% inhibition)”.
In the case of `O=C(NC1CCCC1)c1nc(-c2ccccn2)nc(O)c1O` [drawing 812], on KRas G12D mutant (setting [1]), the inhibition at 20 µM lay within 1 to 25%. In addition, the inhibition at 20 µM at KRas G12D mutant (setting [2]) was 51 to 75%. Further, in the experiment with KRas Q61H mutant, the “KRas Q61H mutant + SOS: % inh.” value was “B (26-50% inhibition)” and the “KRas Q61H mutant: % inh.” value is reported as “C (51-75% inhibition)”. In the experiment on KRas G12C mutant, the “KRas G12C mutant + SOS: % inh.” value is listed as “B (26-50% inhibition)” and the “KRas G12C mutant: % inh.” value was “D (76-100% inhibition)”. Moreover, in the experiment on KRas wild type, the “KRas wild type + SOS: % inh.” value was “A (1-25% inhibition)” and the “KRas wild type: % inh.” value is listed as “D (76-100% inhibition)”.
